# Biological target: T1, human PPARγ (Homo sapiens, UniProt P37231)
# T1 construct: 1.6 kb of fragment of the prepared plasmid pGEMT-hPPARg2 including human PPARγ gene; expressed in transfected cells; host or cells: CV-1 cells, transient transfection with pCI-hPPARg2, pCI-hRXRa and the reporter pGL3-PPRE3-TK
# T1 sequence (P37231 1-505): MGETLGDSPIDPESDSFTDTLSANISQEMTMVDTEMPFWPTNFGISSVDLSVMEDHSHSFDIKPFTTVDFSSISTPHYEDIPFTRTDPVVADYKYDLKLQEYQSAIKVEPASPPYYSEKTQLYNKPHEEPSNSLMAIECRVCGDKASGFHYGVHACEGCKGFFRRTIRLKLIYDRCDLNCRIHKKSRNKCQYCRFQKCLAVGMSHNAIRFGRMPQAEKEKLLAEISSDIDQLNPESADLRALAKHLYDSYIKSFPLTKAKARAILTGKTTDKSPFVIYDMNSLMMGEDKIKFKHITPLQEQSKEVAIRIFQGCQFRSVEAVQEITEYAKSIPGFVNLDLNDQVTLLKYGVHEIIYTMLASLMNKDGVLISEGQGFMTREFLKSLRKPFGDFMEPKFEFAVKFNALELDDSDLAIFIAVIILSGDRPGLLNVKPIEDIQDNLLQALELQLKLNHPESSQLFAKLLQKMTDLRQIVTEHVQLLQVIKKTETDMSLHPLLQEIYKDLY
# T1 sequence (P19793 1-462 partner): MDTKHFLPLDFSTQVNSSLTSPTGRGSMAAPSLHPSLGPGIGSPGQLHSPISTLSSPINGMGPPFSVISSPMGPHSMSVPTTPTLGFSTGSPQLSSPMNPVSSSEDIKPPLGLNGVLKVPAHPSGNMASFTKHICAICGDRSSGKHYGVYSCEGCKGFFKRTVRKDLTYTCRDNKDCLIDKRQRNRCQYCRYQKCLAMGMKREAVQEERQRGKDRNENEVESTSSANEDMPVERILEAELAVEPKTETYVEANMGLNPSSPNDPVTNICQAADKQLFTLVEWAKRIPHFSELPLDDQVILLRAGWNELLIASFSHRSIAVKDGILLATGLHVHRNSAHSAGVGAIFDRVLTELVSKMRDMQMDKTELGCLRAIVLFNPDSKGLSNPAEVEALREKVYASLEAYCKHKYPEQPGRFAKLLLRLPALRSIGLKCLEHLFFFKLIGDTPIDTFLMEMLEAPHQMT
# Assay: Human PPARγ antagonist assay (luciferase reporter in transfected CV-1 cells)
# Assay type: cell-based
# Details: CV-1 cells expressing human PPARγ and RXRα with reporter plasmid; pioglitazone 1 μM as stimulant; 24 hours; read-out: Human PPARγ antagonist activities, Inhibition IC50
# Method: CV-1 cells (96 well plate), where human PPARγ and RXRα has expressed in the transient transfection of reporter plasmid (see reference 5a) were washed once with PBS (100 μL/well), and then supplemented with 100 μL/well […], as well as pioglitazone (not limited to pioglitazone shown as an example, but may be any PPARγ agonist) at a final concentration of 1 μM as a stimulant were added, and incubated in a 5% CO2 incubator at 37° C. for 24 hours. After removing the medium, the CV-1 cells were washed once with PBS (100 μL/well), and supplemented with 60 μL/well of 1× Passive Lysis Buffer (manufactured by Promega Corporation). The CV-1 cells were incubated at room temperature for 30 minutes, stirred, and then by using Dual-Luciferase Reporter Assay System (manufactured by Promega Corporation), luciferase activities of firefly and renilla were measured using 1420 ARVO Multilabel Counter (manufactured by Wallac Oy). Also, the same experiments as that described above were respectively carried out for the cases where only the above-mentioned stimulants (100 nM, 1 μM, 10 μM) were used, where only the above-mentioned test compounds were used, or where neither was used (nonsupplemented), and luciferase activities of firefly and renilla were measured. Values corrected by dividing the firefly luciferase activities by the renilla luciferase activities were calculated as specific activities and used for evaluations.
# Human PPARγ2 antagonist activities of the test compounds were evaluated by using a percentage (inhibition) where the specific activity in case only […] was added is regarded as 0% and the specific activity in case the test compound and the stimulant were not added is regarded as 100%. Moreover, the concentration of the test compound indicating the inhibition rate of 50% was calculated as the IC50 value. Also, human PPARγ2 agonist activities of the test compounds were evaluated by using a percentage (activity) where the specific activity when nonsupplemented is regarded as 0% and the specific activity in case only 10 μM stimulant was added is regarded as 100%, from the specific activity in case only the test compound is used.
# CV-1 cells were cultured in DMEM medium (manufactured by Invitrogen Corporation) including 10% fetal bovine serum (manufactured by Dainippon Pharmaceutical Co., Ltd.) in 225T-Flask (manufactured by Corning Costar). The cells were detached by 0.5 g/L trypsin-0.2 g/L EDTA (ethylene diamine tetra-acetic acid) (manufactured by Invitrogen Corporation), and then suspended in the DMEM medium including 10% fetal bovine serum to a cell concentration of 2×10^5 cells/mL. Thereafter, the cells were seeded into 96 well plate at 2×10^4 cells/0.1 mL/well, incubated in the 5% CO2 incubator at 37° C. overnight, and then the plasmids prepared by the above-mentioned reference 1a, reference 3a, and reference 4a were transfected into cells by using a lipofectamine reagent (manufactured by Invitrogen Corporation) according to the attached manual.
# Namely, after CV-1 cells were cultured overnight, the cells were washed with PBS (100 μL/well). Thereafter the cells were incubated for 5 hours at 37° C./5% CO2 in the MEM medium (manufactured by Invitrogen Corporation) including 430 ng/mL of human PPARγ expression plasmid (pCI-hPPARg2) prepared by the reference 1a, 430 ng/mL of human RXRα expression plasmid (pCI-hRXRa) prepared by the reference 3a, and 140 ng/mL of the reporter plasmid (pGL3-PPRE3-TK) prepared by the reference 4a, 10 ng/mL of phRL-TK vector (manufactured by Promega Corporation) and 2 μL/mL of lipofectamine.
row,IC50 [nM],Structure (SMILES)
1,2460,COc1cc(Cn2c3ccccc3c3c(OCC(=O)O)cccc32)ccc1OCc1nc(-c2ccccc2)oc1C [Example 29]
2,2490,"COc1cc(Cn2c3ccccc3c3c(Oc4cccc(C(=O)O)c4)cccc32)ccc1OCc1nc(-c2ccccc2)oc1C [Example 48, sodium 3-{9-[3-methoxy-4-((5-methyl-2-phenyloxazole-4-yl)methoxy)-benzyl]-9H-carbazole-4-yloxy}benzoate]"
3,471,"COc1cc(Cn2c3ccccc3c3c(OC(C(=O)O)c4ccccc4)cccc32)ccc1OCc1nc(-c2ccccc2)oc1C (single isomer, unassigned) [Example 50, sodium (+)-2-{9-[3-methoxy-4-((5-methyl-2-phenyl-oxazole-4-yl)methoxy)-benzyl]-9H-carbazole-4-yloxy}-2-phenylacetate]"
4,2190,"COc1cc(Cn2c3ccccc3c3c(OC(C(=O)O)c4ccccc4)cccc32)ccc1OCc1nc(-c2ccccc2)oc1C (single isomer, unassigned) [Example 51, sodium (−)-2-{9-[3-methoxy-4-((5-methyl-2-phenyl-oxazole-4-yl)methoxy)-benzyl]-9H-carbazole-4-yloxy}-2-phenylacetate]"
5,484,"CC[C@@H](Oc1cccc2c1c1ccccc1n2Cc1ccc(OCc2nc(-c3ccccc3)oc2C)c(OC)c1)C(=O)O [Example 42, sodium (R)-2-{9-[3-methoxy-4-((5-methyl-2-phenyl-oxazole-4-yl)methoxy)-benzyl]-9H-carbazole-4-yloxy}butyrate]"

# The remaining lines, values behind:
row,Structure (SMILES),IC50 [nM]
1,"CCCC(Oc1cccc2c1c1ccccc1n2Cc1ccc(OCc2nc(-c3ccccc3)oc2C)c(OC)c1)C(=O)O (racemic) [Example 11, (±)-2-{9-[3-methoxy-4-((5-methyl-2-phenyl-oxazole-4-yl)methoxy)-benzyl]-9H-carbazole-4-yloxy}valeric acid]",281
2,"COc1cc(Cn2c3ccccc3c3c(OC(C(=O)O)C(C)C)cccc32)ccc1OCc1nc(-c2ccccc2)oc1C (racemic) [Example 10, (±)-2-{9-[3-methoxy-4-((5-methyl-2-phenyl-oxazole-4-yl)methoxy)-benzyl]-9H-carbazole-4-yloxy}-3-methyl-butyric acid]",400
3,"CCCCCCC(Oc1cccc2c1c1ccccc1n2Cc1ccc(OCc2nc(-c3ccccc3)oc2C)c(OC)c1)C(=O)O (racemic) [Example 19, (±)-2-{9-[3-methoxy-4-((5-methyl-2-phenyl-oxazole-4-yl)methoxy)-benzyl]-9H-carbazole-4-yloxy}caprylic acid]",882
4,"COc1cc(Cn2c3ccccc3c3c(OCCC(C)C(=O)O)cccc32)ccc1OCc1nc(-c2ccccc2)oc1C (single isomer, unassigned) [Example 53, sodium (+)-4-{9-[3-methoxy-4-((5-methyl-2-phenyl-oxazole-4-yl)methoxy)-benzyl]-9H-carbazole-4-yloxy}-2-methyl-butyrate]",382

# Source: patent US8329913B2, “Carbazole derivative, solvate thereof, or pharmaceutically acceptable salt thereof” (Zeria Pharmaceutical Co., Ltd., priority 2004, dated 2012)
